The results in this text go back to US10766855B2, “Hydroxamate triterpenoid derivatives” (VIVACELL BIOTECHNOLOGY ESPANA S.L., priority 2016, dated 2020).

SMILES strings stand for the structures.

Experiment [1] relates to Erythropoietin (EPO). As to the kind of experiment: Plasma erythropoietin (EPO) levels in mice (ELISA). The experiment is classed as in vivo, mouse. To be noted: C57BL/6 male mice, i.p., 4 hours after treatment; compound VII 30 and 60 mg/kg, Betulinic acid 60 mg/kg. As to the method:
EPO in plasma measured using a mouse EPO ELISA kit in C57BL/6 male mice administered with compound VII (30 mg/kg or 60 mg/kg) or betulinic acid (BA) (60 mg/kg) intraperitoneally. […] Data are expressed as mean±SEM (n=3).
Erythropoietin (EPO) is one of the earliest described and most sensitive HIF target genes; being positively regulated at the transcription level. Here, the ability of compound VII to regulated EPO levels in vivo was examined. Sixteen-week-old C57BL/6 male mice were treated intraperitoneally (i.p.) with Betulinic Acid (60 mg/kg) or compound VII (30 mg/kg or 60 mg/kg). Blood samples were taken under general anaesthesia 4 hours after treatment and the circulating levels of EPO in plasma were quantified using a mouse EPO ELISA kit (R&D Systems) according to manufacturer's instructions. EPO values represent the mean±SEM (n=3).

For experiment [2], the system named is STAT3. Briefly: STAT3 inhibition in HeLa-STAT3-Luc cells stimulated with IFN-γ. Format: cell-based. To be noted: IFN-γ 25 IU/ml, 6 h. As to the method:
The HeLa-STAT3-luc cells stably transfected with the plasmid 4×M67 pTATA TK-Luc. Cells (20×10^3 cells/ml) were seeded in 96-well plates, treated with increasing concentrations of the compounds II to XIV, and of comparative compound CDDO-Me, for 15 min and then stimulated with IFN-γ 25 IU/ml. After 6 h the luciferase activity in the cell lysates was measured as indicated above. […] The HaCaT-ARE-Luc cell line contains the Nqo1 Antioxidant Response Element (ARE)-Luc reporter plasmid. ARE is activated by all members of the CNC family of factors (Nrf1, Nrf2, Nrf3 and p45 NF-E2). The cells were cultivated in 96-well plates at the concentration of 25×10^3 cells/well in a CO2 incubator at 37° C. For induction of Nrf2 activation the cells were treated with increasing concentrations of the compounds II to XV, and of comparative compound CDDO-Me, for 6 h. As a positive control the cells were treated with 0.02 mM of the antioxidant Tert-butyl-hydroquinone (TBHQ). Luciferase activity in the cell lysates was measured as indicated above and the EC50 calculated (Table III). The CHO-TGR5-CRE-Luc cells stably transfected with the pTGR5 and CRE-Luc. The CRE-responsive luciferase construct encodes the firefly luciferase reporter gene under the control of a minimal (m)CMV promoter and tandem repeats of the CRE transcriptional response element (TRE) and is useful to monitor cAMP signaling pathways activated by TGR5 agonists. Cells (1×10^4/well) were seeded in 96-well plates, treated with increasing concentrations of the compounds II to XV and CDDO-Me, for 6 h. As a positive control the cells were treated with 10 μM of LCA (lithocholic acid). Luciferase activity in the cell lysates was measured as indicated above and the EC50 calculated (Table III).

Experiment [3] relates to TGR5. Briefly: TGR5 activation in CHO-TGR5-CRE-Luc cells. Format: cell-based. The following applies: 6 h.
Experimental: The CHO-TGR5-CRE-Luc cells stably transfected with the pTGR5 and CRE-Luc. […] As a positive control the cells were treated with 10 μM of LCA (lithocholic acid). Luciferase activity in the cell lysates was measured as indicated above and the EC50 calculated (Table III).
Experiment [4] relates to NF-κB. As to the kind of experiment: NF-κB inhibition in NIH-3T3-KBF-Luc cells stimulated with TNFα. To be noted: TNFα 30 ng/ml, 6 h. The experiment is classed as cell-based. As to the method: To further study the target selectivity of the compounds described in the present invention the effect of the natural triterpenoids (OA; BA, UA, and MA), compounds II to XV of Formula (I) disclosed in present invention, and of comparative compound CDDO-Me on NF-κB inhibition, STAT-3 inhibition, Nrf2 activation and TGR5 activation was analyzed. For this study cell lines NIH-3T3-KBF-Luc, HeLa-STAT3-Luc, HaCaT-ARE-Luc and CHO-TGR5-CRE-luc were used respectively. The NIH3T3-KBF-Luc cell line stably transfected with the plasmid KBF-Luc plasmid, which contains three copies of NF-κB binding site (from major histocompatibility complex promoter), fused to a minimal simian virus 40 promoter driving the luciferase gene. Cells (1×10^4/well) were seeded in 96-well plates, treated with increasing concentrations of the compounds II to XV for 15 min and then stimulated with 30 ng/ml TNFα. After 6 h the luciferase activity in the cell lysates was measured as indicated above.

Experiment [5] concerns HIF-2α. As to the kind of experiment: HIF-2α stabilization in hIPCs (Western blot). Format: cell-based, human. The following applies: increasing concentrations, 3 h. As to the method: Stimulation of human Islet-Derived Precursor Cells (hIPCs) with increasing concentrations of compound VII or with DFX (150 μM) during 3 h, and the expression of HIF-2α, PHD3 and β-actin determined by Western blots.
Since PDH2 and PDH3 also regulate the expression of HIF-2α, the effect of compound VII on HIF-2α stabilization in Human Islet-Derived Precursor Cells (hIPCs) obtained from Innoprot SL (Spain) (reference p10472) was investigated. hIPCs were stimulated with the increasing concentrations of compound VII or with DFX (150 μM) during 3 h. After that, proteins isolation and western blots were performed as in FIG. 3. The antibodies against HIF-2α (ab8365) and PHD3 (ab30782) were from Abcam (Cambrigde, UK), and the antibody anti-β-actin (AC-74) was purchased from Sigma-Aldrich (Saint Louis, Mo., USA). (FIG. 5).

For experiment [6], the system named is HIF-1α. As to the kind of experiment: HIF-1α stabilization in 293T cells (Western blot). Format: cell-based, human. To be noted: increasing concentrations, 3 h. As to the method:
Stimulation of human Embryonic Kidney 293 cells with increasing concentrations of compound VII or with DFX (150 μM) during 3 h. The steady state levels of the proteins HIF-1α, PHD1, PHD2 and β-actin were determined by Western blots.
Next, Human Embryonic Kidney 293 cells (293T) were stimulated with the increasing concentrations of compound VII or with DFX (150 μM) during 3 h. After that, proteins isolation and western blots were performed as in FIG. 3. The antibody against HIF-1α (610959) was from BD Biosciences (USA), the antibodies anti-PHD1 (ab80361) and anti-PHD2 (ab109088) were from Abcam (Cambrigde, UK), and the antibody anti-β-actin (AC-74) was purchased from Sigma-Aldrich (Saint Louis, Mo., USA).

`C=C(C)[C@@H]1CC[C@]2(C(=O)NO)CC[C@]3(C)[C@H](CC[C@@H]4[C@@]5(C)CC[C@H](O)C(C)(C)[C@@H]5CC[C@]43C)[C@@H]12` [Compound VII, (3β) 3-Hydroxy-N-hydroxy-lup-20(29)-en-28-amide]: in experiment [1], the “circulating EPO plasma levels” value was “strongly increased”. Further, the IC50 in experiment [2] was greater than 50 µM. This molecule showed an EC50 in experiment [3] greater than 50 µM. This molecule also yielded an IC50 in experiment [4] greater than 50 µM. Besides, in experiment [5], the HIF-2α expression result is given as “stabilized HIF-2α expression” and the “expression of PHD3” value was “without affecting the expression of PHD3”. Moreover, in experiment [6], the HIF-1α expression result is given as “stabilized HIF-1α expression”; the “expression of PHD1 and PHD2” value was “without affecting the expression of PDH1 and PDH2”.
